Test results published in article PMC11187260, “Unraveling the interconversion pharmacokinetics and oral bioavailability of the major ginger constituents: [6]-gingerol, [6]-shogaol, and zingerone after single-dose administration in rats” (Frontiers in Pharmacology, 2024).

Columns and labels:
Assay type in all cases: in vivo, Female Sprague Dawley rats
[1] = Pharmacokinetics and oral bioavailability after single oral administration (30 mg/kg), plasma LC-MS/MS; conditions: for AUC(0-t) / AUC(0-∞) / Cmax (obs): mean ± SD n=6; for Tmax (obs): median [IQR]
Method: (§1) This study is composed of two sections; the first section involves an investigation of the interconversion pharmacokinetics of the pure compounds, and the second focuses on tissue distribution. All rats were transferred to metabolic cages and fasted overnight for at least 10 h. The animals were then randomly divided into four groups (6 rats/group) to receive a single intravenous (i.v.) administration of either 6G, 6S, zingerone, or vehicle via the lateral tail vein at a dosage of 3 mg/kg. After a 7-week washout period, the rats received 30 mg/kg of the same test compounds through a single oral (p.o.) administration. Following each administration, blood samples (300 µL) were collected in heparinized tubes from the lateral tail vein (while rats were under anesthesia with isoflurane) at specified time points: 0.083, 0.25, 0.5, 1, 1.5, 2, 3, 4, 6, 8, and 24 h after administration. An additional 1 mL of blood sample was collected from each rat at pre-dose (0 h) and post-dose (24 h) for clinical laboratory testing and safety evaluation. All heparinized blood samples were initially centrifuged at 5,000 × g, 4 °C, for 10 min. Subsequently, the plasma was carefully transferred to a cryotube as an aliquot sample and then stored at −40 °C until analysis. Urine and feces were collected during the intervals of 0–24 h and 24–48 h post-dosing, and their weights and volumes were documented. All collected urine and feces samples were stored at −40 °C until analysis.
Plasma samples were processed through protein precipitation. In brief, 50 µL of plasma was mixed with 200 µL of methanol containing 50 ng/mL of IS (dihydrocapsaicin). The mixtures were vortexed and centrifuged at 14,000 × g at 4 °C for 10 min. The supernatant was filtered through a […] PVDF membrane (Chrome Tech, MN, USA) before analysis.
(§2) Investigation of glucuronide conjugations followed a previously published method with some modification ([Wang et al., 2017]; [Songvut et al., 2023]). A 50 μL aliquot of plasma, urine, or feces sample was incubated at 37 °C for a minimum of 30 min with 50 μL of β-glucuronidase (3,000 U/mL) in a sodium phosphate buffer (pH 6.8). For sample extraction, 150 μL of methanol containing 50 μg/L of IS was pipetted into the pre-incubated samples. Subsequently, the mixtures were vortexed for 10 min and then centrifuged at 14,000 × g at 4 °C for 10 min. The supernatants were filtered through a […] PVDF membrane (Chrome Tech, MN, United States) and then analyzed using the validated LC-MS/MS method.
Quantitative analysis was conducted using liquid chromatography-tandem mass spectrometry (LC-MS/MS) with a Nexera X2 LCMS-8060NX instrument (Shimadzu, Japan). The instrument included a CBM-40lite system controller, CTO-40C column oven, SIL-40C XR autosampler, LC-40D XR solvent pump unit, FCV-DGU-403 degasser, and 20AH2 switching valve. The LC-MS/MS system was operated with a binary pump and equipped with a triple quadrupole mass spectrometer.
Pharmacokinetic parameters were assessed using PK Solutions software (version 2.0) with non-compartmental analysis. The AUC was calculated using the Linear-Log Trapezoidal Method. The maximum plasma concentration (Cmax) and time to reach maximum plasma concentration (Tmax) were taken directly from the graph.
(§3) Plasma concentration-time profiles were plotted using GraphPad Prism 9.3.0 (GraphPad Software, USA). The absolute oral bioavailability was calculated as follows: F = (AUC p.o./dose p.o.)/(AUC i.v./dose i.v.). The percentage recovery of each administered compound was calculated as the total amount of the drug found in urine or feces divided by the administered dose. The tissue-to-plasma concentration ratios (K p) were calculated by dividing the concentration in the tissue by the corresponding plasma concentration at the respective sampling time point.

[2] = Pharmacokinetics after single intravenous administration (3 mg/kg), plasma LC-MS/MS; conditions: mean ± SD n=6
Method: This study is composed of two sections; the first section involves an investigation of the interconversion pharmacokinetics of the pure compounds, and the second focuses on tissue distribution. All rats were transferred to metabolic cages and fasted overnight for at least 10 h. The animals were then randomly divided into four groups (6 rats/group) to receive a single intravenous (i.v.) administration of either 6G, 6S, zingerone, or vehicle via the lateral tail vein at a dosage of 3 mg/kg. After a 7-week washout period, the rats received 30 mg/kg of the same test compounds through a single oral (p.o.) administration. Following each administration, blood samples (300 µL) were collected in heparinized tubes from the lateral tail vein (while rats were under anesthesia with isoflurane) at specified time points: 0.083, 0.25, 0.5, 1, 1.5, 2, 3, 4, 6, 8, and 24 h after administration. An additional 1 mL of blood sample was collected from each rat at pre-dose (0 h) and post-dose (24 h) for clinical laboratory testing and safety evaluation. All heparinized blood samples were initially centrifuged at 5,000 × g, 4 °C, for 10 min. Subsequently, the plasma was carefully transferred to a cryotube as an aliquot sample and then stored at −40 °C until analysis. Urine and feces were collected during the intervals of 0–24 h and 24–48 h post-dosing, and their weights and volumes were documented. All collected urine and feces samples were stored at −40 °C until analysis. Plasma samples were processed through protein precipitation. In brief, 50 µL of plasma was mixed with 200 µL of methanol containing 50 ng/mL of IS (dihydrocapsaicin). The mixtures were vortexed and centrifuged at 14,000 × g at 4 °C for 10 min. The supernatant was filtered through a […] PVDF membrane (Chrome Tech, MN, USA) before analysis. Investigation of glucuronide conjugations followed a previously published method with some modification ([Wang et al., 2017]; [Songvut et al., 2023]). A 50 μL aliquot of plasma, urine, or feces sample was incubated at 37 °C for a minimum of 30 min with 50 μL of β-glucuronidase (3,000 U/mL) in a sodium phosphate buffer (pH 6.8). For sample extraction, 150 μL of methanol containing 50 μg/L of IS was pipetted into the pre-incubated samples. Subsequently, the mixtures were vortexed for 10 min and then centrifuged at 14,000 × g at 4 °C for 10 min. The supernatants were filtered through a […] PVDF membrane (Chrome Tech, MN, United States) and then analyzed using the validated LC-MS/MS method. Quantitative analysis was conducted using liquid chromatography-tandem mass spectrometry (LC-MS/MS) with a Nexera X2 LCMS-8060NX instrument (Shimadzu, Japan). The instrument included a CBM-40lite system controller, CTO-40C column oven, SIL-40C XR autosampler, LC-40D XR solvent pump unit, FCV-DGU-403 degasser, and 20AH2 switching valve. The LC-MS/MS system was operated with a binary pump and equipped with a triple quadrupole mass spectrometer. Pharmacokinetic parameters were assessed using PK Solutions software (version 2.0) with non-compartmental analysis. The AUC was calculated using the Linear-Log Trapezoidal Method. The maximum plasma concentration (Cmax) and time to reach maximum plasma concentration (Tmax) were taken directly from the graph.

[3] = Percent recovery in urine and feces after intravenous or oral administration; conditions: % of administered dose
Method: as §1
Urine samples were centrifuged, and 50 µL of urine was extracted with 200 µL of 100% methanol. The mixture was vortexed for 10 min and subsequently centrifuged at 14,000 × g at 4 °C for 10 min. Feces and organs were weighed and homogenized with methanol (50:50% w/v). The supernatants of the extracted urine, feces, and organs were also filtered through a […] PVDF membrane (Chrome Tech, MN, USA) before analysis.
as §2, §3

[4] = plasma analyte after [6]-shogaol p.o. 30 mg/kg
[5] = plasma analyte after [6]-shogaol i.v. 3 mg/kg
[6] = intravenous administration 3 mg/kg of parent compound
[7] = oral administration 30 mg/kg of parent compound
[8] = plasma analyte after zingerone p.o. 30 mg/kg
[9] = plasma analyte after zingerone i.v. 3 mg/kg
[10] = plasma analyte after [6]-gingerol p.o. 30 mg/kg
[11] = plasma analyte after [6]-gingerol i.v. 3 mg/kg

CCCCC/C=C/C(=O)CCc1ccc(O[C@@H]2O[C@H](C(=O)O)[C@@H](O)[C@H](O)[C@H]2O)c(OC)c1 [[6]-shogaol glucuronide]
AUC(0-t) [1, 4]: 11.88 ± 1.87 ng·h/mL | AUC(0-∞) [1, 4]: 11.89 ± 1.87 ng·h/mL | Cmax (obs) [1, 4]: 18.54 ± 6.93 ng/mL | Tmax (obs) [1, 4]: 0.375 [0.25] h | AUC(0-t) [2, 5]: 7,966.49 ± 3,782.71 ng-h/mL | AUC(0-∞) [2, 5]: 7,974.90 ± 3,786.32 ng-h/mL | % Recovery excretion, feces T 0–24 h [3, 6]: 0.003 ± 0.003% | % Recovery excretion, feces T 24–48 h [3, 6]: 0.004 ± 0.001% | % Recovery excretion, urine T 0–24 h [3, 6]: 0.153 ± 0.112% | % Recovery excretion, urine T 24–48 h [3, 6]: <0.001% | % Recovery excretion, urine T 0–24 h [3, 7]: 0.042 ± 0.037% | % Recovery excretion, urine T 24–48 h [3, 7]: <0.001%

COc1cc(CCC(C)=O)ccc1O[C@@H]1O[C@H](C(=O)O)[C@@H](O)[C@H](O)[C@H]1O [zingerone glucuronide]
AUC(0–∞) of glucuronide compared to AUC(0–∞) of unconjugated compound ([1]; after zingerone oral administration 30 mg/kg): 6 fold | AUC(0-t) [1, 8]: 5847.24 ± 134.65 ng·h/mL | AUC(0-∞) [1, 8]: 5847.24 ± 134.65 ng·h/mL | Cmax (obs) [1, 8]: 4593.37 ± 1192.68 ng/mL | Tmax (obs) [1, 8]: 0.25 [0.00] h | AUC(0-t) [2, 9]: 12,873.76 ± 12,580.54 ng-h/mL | AUC(0-∞) [2, 9]: 12,903.70 ± 12,585.11 ng-h/mL | % Recovery excretion, urine T 0–24 h [3, 6]: 7.396 ± 6.349% | % Recovery excretion, urine T 24–48 h [3, 6]: <0.001% | % Recovery excretion, urine T 0–24 h [3, 7]: 4.245 ±3.009% | % Recovery excretion, urine T 24–48 h [3, 7]: 0.166 ± 0.075%

[6]-gingerol glucuronide
AUC(0-t) [1, 10]: 549.22 ± 272.42 ng·h/mL | AUC(0-∞) [1, 10]: 603.05 ± 268.67 ng·h/mL | Cmax (obs) [1, 10]: 539.42 ± 377.66 ng/mL | Tmax (obs) [1, 10]: 0.25 [0.00] h | AUC(0-t) [2, 11]: 11,087.06 ± 7,432.61 ng-h/mL | AUC(0-∞) [2, 11]: 11,087.09 ± 7,432.598 ng-h/mL | % Recovery excretion, urine T 0–24 h [3, 6]: 5.712 ± 2.768% | % Recovery excretion, urine T 24–48 h [3, 6]: 0.146 ± 0.073% | % Recovery excretion, urine T 0–24 h [3, 7]: 3.416 ± 1.735% | % Recovery excretion, urine T 24–48 h [3, 7]: 0.036 ± 0.027%
